Measurements reported in US20230159510A1, “NOVEL PRMT5 INHIBITORS” (AMGEN INC., priority 2020, published 2023).
pIC50: −log10 of the molar value.

Legend:
[1] = test system: HCT116 WT cells; test: HCT116 proliferation assay, WT cells (CellTiter-Glo, 6 days); format: cell-based; details: Homo sapiens, HCT-116, 144 h, read-out: Prolif_HCT116-WT IC50
Procedure, shortened: (§1)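 Cells grown in RPMI 1640 + 10% FBS, plated overnight, then exposed for 6 days to 8- or 9-point 1:3 compound dilutions (top 1 or 10 µM) with DMSO control. Viability read by CellTiter-Glo luminescence.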

[2] = target: PRMT5/MEP50 (Homo sapiens, UniProt O14744); test: MTase-Glo methyl transferase assay, Method A (Histone H4 peptide, 1 µM MTA, 24 h pre-incubation); format: biochemical; set-up: made in house; details: read-out: PRMT5 MTase Glo Ki (nM, Meth. A)
Procedure: Method A: The PRMT5 inhibitory activity of test compounds was determined using the MTase-Glo™ assay (Promega), which monitors the product (S-adenosyl homocysteine or SAH) of methyltransferase reactions. The PRMT5 MTase-Glo assay was conducted in a 384-well white ProxiPlate (PerkinElmer) in a total volume of 12 µL. The PRMT5 enzymatic reaction (in 4 µL) contained 10 nM PRMT5/MEP50 (produced at Amgen), 5 µM S-adenosyl methionine (SAM, Promega), 1 µM Histone H4 (1-21)-Lys(Biotin) (Anaspec), 1 µM 5′-methylthioadenosine (MTA, Sigma) and two-fold serially diluted compounds in a reaction buffer of 50 mM Tris (pH 8.0), 50 mM NaCl, 0.01% Tween 20, 0.01% BSA, and 1 mM DTT. Test compounds were pre-incubated with PRMT5/MEP50, SAM, and MTA for 24 hours before addition of Histone H4 peptide to initiate the PRMT5 reaction. The reaction was allowed to proceed for 2 hours at room temperature and was then terminated by addition of 2 µL of 3X MTase-Glo™ Reagent (Promega) and 150 µM EPZ015666 (Sigma). After a 30-minute incubation at room temperature, 6 µL of MTase-Glo™ Detection Solution (Promega) was added and the plate was incubated at room temperature for an additional 30 minutes. The light signal corresponding to the amount of SAH produced by the PRMT5 reaction was subsequently measured using an Envision multimode reader (PerkinElmer). IC50 and KI values were obtained by analyzing dose-response curves using Genedata Screener (Genedata).

[3] = test system: HCT116 MTAP null cells; test: HCT116 proliferation assay, MTAP null cells (CellTiter-Glo, 6 days); format: cell-based; details: HCT116-MTAP null, 144 h, read-out: Protif_ HCT116-MTAP null IC50
Procedure, shortened: as §1

Chain of PRMT5/MEP50 (O14744 whole entry): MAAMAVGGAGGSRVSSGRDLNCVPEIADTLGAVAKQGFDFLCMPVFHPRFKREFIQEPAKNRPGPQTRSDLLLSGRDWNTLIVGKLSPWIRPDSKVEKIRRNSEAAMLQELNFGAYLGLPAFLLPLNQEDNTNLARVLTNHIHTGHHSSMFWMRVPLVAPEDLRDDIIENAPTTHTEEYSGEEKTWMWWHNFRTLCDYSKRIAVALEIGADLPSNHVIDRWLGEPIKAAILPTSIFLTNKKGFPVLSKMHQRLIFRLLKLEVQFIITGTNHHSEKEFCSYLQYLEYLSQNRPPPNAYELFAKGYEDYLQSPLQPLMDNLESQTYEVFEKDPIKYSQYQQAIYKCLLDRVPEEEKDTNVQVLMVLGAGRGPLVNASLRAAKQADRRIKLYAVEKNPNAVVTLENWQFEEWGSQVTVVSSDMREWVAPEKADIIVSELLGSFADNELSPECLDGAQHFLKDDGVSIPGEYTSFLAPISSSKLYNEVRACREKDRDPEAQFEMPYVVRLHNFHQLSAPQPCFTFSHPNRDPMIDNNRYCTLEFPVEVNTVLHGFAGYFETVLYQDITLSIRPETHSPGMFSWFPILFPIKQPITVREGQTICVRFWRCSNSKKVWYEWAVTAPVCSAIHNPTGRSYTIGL
Chain of PRMT5/MEP50 (Q9BQA1 whole entry partner): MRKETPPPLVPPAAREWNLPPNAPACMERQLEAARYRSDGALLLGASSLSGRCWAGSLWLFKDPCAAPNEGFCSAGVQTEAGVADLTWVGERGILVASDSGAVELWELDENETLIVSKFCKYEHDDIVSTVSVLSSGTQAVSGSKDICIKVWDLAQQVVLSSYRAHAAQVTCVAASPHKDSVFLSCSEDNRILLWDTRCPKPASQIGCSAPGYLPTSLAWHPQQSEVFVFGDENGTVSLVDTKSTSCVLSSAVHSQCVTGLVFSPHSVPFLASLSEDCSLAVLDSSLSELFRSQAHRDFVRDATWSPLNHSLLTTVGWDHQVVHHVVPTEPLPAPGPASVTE

| SMILES | pIC50 [1] | Ki [2] | pIC50 [3] |
| --- | --- | --- | --- |
| Cc1cc2cc(C(=O)N(Cc3ccc(C(F)(F)F)cn3)[C@H](C)c3ncccn3)cnc2nc1N (single isomer, unassigned) [Example 486] | 5.42 | 0.42 nM | 6.91 |
| Cc1cc2cc(C(=O)N(Cc3ccc(OC(F)(F)F)cn3)[C@H](C)c3ncccn3)ccc2nc1N (single isomer, unassigned) [Example 487] | 6.14 | 0.04 nM | 7.59 |
| Cc1cc2cc(C(=O)N(Cc3ccc(C(F)(F)F)nn3)[C@H](C)c3ncccn3)ccc2nc1N (single isomer, unassigned) [Example 488] | 5.89 | 0.1 nM | 7.46 |
| Cc1cc2cc(C(=O)N(Cc3ccc(OC(F)F)cn3)[C@H](C)c3ncccn3)ccc2nc1N (single isomer, unassigned) [Example 491] | 5.90 | 0.1 nM | 7.21 |
| Cc1cc2cc(C(=O)N(Cc3ncc(C(F)(F)F)s3)[C@H](C)c3ncccn3)ccc2nc1N (single isomer, unassigned) [Example 492] | 5.47 | 0.22 nM | 6.76 |
| [2H]C([2H])([2H])Oc1ccc(CN(C(=O)c2ccc3nc(N)c(C)cc3c2)[C@H](C)c2ncccn2)nc1 (single isomer, unassigned) [Example 493] | 5.39 | 0.26 nM | 6.84 |
| CC[C@H](c1ncccn1)N(Cc1ccc(C#N)cn1)C(=O)c1ccc2nc(N)c(C)cc2c1 (single isomer, unassigned) [Example 494] | 5.27 | 0.66 nM | 6.71 |
| CC[C@H](c1ncccn1)N(Cc1ccc(C(F)(F)F)nn1)C(=O)c1ccc2nc(N)c(C)cc2c1 (single isomer, unassigned) [Example 495] | 5.50 | 0.06 nM | 7.07 |
| Cc1cc2cc(C(=O)N(Cc3ccc(C(F)(F)F)cn3)[C@H](C)c3ncn(C)n3)ccc2nc1N (single isomer, unassigned) [Example 496] | 6.34 | 0.17 nM | 7.64 |
| Cc1cc2cc(C(=O)N(Cc3ccc(C(F)(F)F)cn3)[C@H](C)c3ncn(C)n3)c(F)cc2nc1N (single isomer, unassigned) [Example 497] | 6.34 | 0.19 nM | 7.46 |
| Cc1cc2cc(C(=O)N(Cc3ccc(C(F)(F)F)cn3)[C@@H](C)c3ncn(C)n3)c(F)cc2nc1N (single isomer, unassigned) [Example 498] | 5.69 | 2.43 nM | 6.34 |
| CC[C@H](c1ncccn1)N(Cc1ccc(C(F)(F)F)cn1)C(=O)c1cc2cc(Br)c(N)nc2cn1 (single isomer, unassigned) [Example 499] | < 5.00 | 0.18 nM | 6.60 |
| CC[C@H](c1ncccn1)N(Cc1ccc(C(F)F)cn1)C(=O)c1cnc2nc(N)c(Br)cc2c1 (single isomer, unassigned) [Example 500] | 5.34 | 0.52 nM | 6.73 |
| CC[C@H](c1ncccn1)N(Cc1ccc(C(F)F)cn1)C(=O)c1ccc2nc(N)c(Br)cc2c1 (single isomer, unassigned) [Example 501] | 5.23 | 0.02 nM | 6.97 |
| CC[C@H](c1ncccn1)N(Cc1cnc(C(F)(F)F)cn1)C(=O)c1ccc2nc(N)c(C)cc2c1 (single isomer, unassigned) [Example 516] | 5.44 | 0.14 nM | 6.81 |
| Cc1cc2cc(C(=O)N(Cc3ccc(C(F)(F)F)nn3)[C@@H](c3ncccn3)C3CC3)ccc2nc1N (single isomer, unassigned) [Example 518] | 6.07 | 0.11 nM | 7.33 |
| Cc1cc2cc(C(=O)N(Cc3ccc(C#N)cn3)[C@@H]3CCOc4cccnc43)ccc2nc1N (single isomer, unassigned) [Example 519] | 5.77 | 0.13 nM | 7.21 |
| Cc1cc2cc(C(=O)N(Cc3ccc(C(F)(F)F)nn3)[C@@H]3CCOc4cccnc43)ccc2nc1N (single isomer, unassigned) [Example 520] | 6.13 | 0.04 nM | 7.62 |
| Cc1cc2cc(C(=O)N(Cc3ccc(C(F)(F)F)cn3)[C@@H]3CCCc4nccnc43)ccc2nc1N (single isomer, unassigned) [Example 521] | 7.11 | 0.01 nM | 7.92 |
| Cc1cc2cc(C(=O)N(Cc3ccc(C(F)(F)F)cn3)[C@H]3CCCc4nccnc43)ccc2nc1N (single isomer, unassigned) [Example 522, 2-amino-3-methyl-N-((5 S)-5,6,7,8-tetrahydro-5-quinoxalinyl)-N-((5-(trifluoromethyl)-2-pyridinyl)methyl)-6-quinolinecarboxamide] | 5.25 | 49.9 nM | 6.06 |
| Cc1cc2cc(C(=O)N(Cc3ccc(C#N)cn3)[C@@H]3CCCn4ncnc43)ccc2nc1N (single isomer, unassigned) [Example 523] | 5.20 | 0.35 nM | 6.48 |
| Cc1cc2cc(C(=O)N(Cc3ccc(C(F)(F)F)nn3)[C@H](C)c3ncccc3Cl)ccc2nc1N (single isomer, unassigned) [Example 525] | 5.12 | 0.23 nM | 6.22 |
| Cc1cc2cc(C(=O)N(Cc3cccc(C(F)(F)F)n3)[C@H](C)c3ncccn3)ccc2nc1N (single isomer, unassigned) [Example 526] | < 5.00 | 0.33 nM | 6.49 |
| Cc1cc2cc(C(=O)N(Cc3cccnc3)Cc3ccc(C(F)(F)F)cn3)ccc2nc1N [Example 301, 2-amino-3-methyl-N-(3-pyridinylmethyl)-N-((5-(trifluoromethyl)-2-pyridinyl)methyl)-6-quinolinecarboxamide] | < 5.00 | 1.22 nM | 6.06 |
| Cc1cc2cc(C(=O)N(Cc3ccccn3)Cc3ccc(C(F)(F)F)cn3)ccc2nc1N [Example 302, 2-amino-3-methyl-N-(2-pyridinylmethyl)-N-((5-(trifluoromethyl)-2-pyridinyl)methyl)-6-quinolinecarboxamide] | < 5.00 | 0.3 nM | 6.44 |

The next lines start with the values.

| pIC50 [1] | Ki [2] | pIC50 [3] | SMILES |
| --- | --- | --- | --- |
| 6.85 | 0.05 nM | 8.00 | Cc1cc2cc(C(=O)N(Cc3ccc(C(F)(F)F)cn3)[C@@H]3CCCc4cn[nH]c43)ccc2nc1N (single isomer, unassigned) [Example 527] |
| 6.05 | 0.14 nM | 7.24 | Cc1cc2cc(C(=O)N(Cc3ccc(C(F)(F)F)cn3)[C@H](C)c3ncc(F)cn3)ccc2nc1N (single isomer, unassigned) [Example 528] |
| 5.37 | 1.69 nM | 6.59 | COC[C@@H](c1ccccn1)N(Cc1ccc(C(F)(F)F)cn1)C(=O)c1ccc2nc(N)c(C)cc2c1 (single isomer, unassigned) [Example 529] |
| 5.77 | 0.18 nM | 6.97 | COC[C@H](c1ccccn1)N(Cc1ccc(C(F)(F)F)cn1)C(=O)c1ccc2nc(N)c(C)cc2c1 (single isomer, unassigned) [Example 530] |
| 5.55 | 0.1 nM | 7.11 | Cc1cc2cc(C(=O)N(Cc3ccc(C#N)cn3)[C@H](C)c3ncn(C)n3)ccc2nc1N (single isomer, unassigned) [Example 531] |
| 6.05 | 0.02 nM | 7.35 | Cc1cc2cc(C(=O)N(Cc3ccc(C(F)F)cn3)[C@H](C)c3cnn(C)n3)ccc2nc1N (single isomer, unassigned) [Example 532] |
| 6.12 | 0.02 nM | 7.72 | Cc1cc2cc(C(=O)N(Cc3ccc(C(F)(F)F)nn3)[C@H](C)c3cscn3)ccc2nc1N (single isomer, unassigned) [Example 533] |
| 5.40 | 0.33 nM | 6.81 | Cc1nc([C@@H](C)N(Cc2ccc(C(F)F)cn2)C(=O)c2ccc3nc(N)c(C)cc3c2)no1 (single isomer, unassigned) [Example 534] |
| < 5.00 | 0.34 nM | 6.26 | C[C@H](c1ncn(C)n1)N(Cc1ccc(C(F)F)cn1)C(=O)c1cnc2nc(N)c(Br)cc2c1 (single isomer, unassigned) [Example 535] |
| 5.84 | 0.02 nM | 7.36 | Cc1cc2cc(C(=O)N(Cc3ccc(Br)nn3)[C@H](C)c3ncn(C)n3)ccc2nc1N (single isomer, unassigned) [Example 536] |
| 6.14 | 0.08 nM | 7.68 | C[C@H](c1ncccn1)N(Cc1ccc(C(F)(F)F)cn1)C(=O)c1ccc2nc(N)c(I)cc2c1 (single isomer, unassigned) [Example 544] |
